Assay results from US9340577B2, “HLA binding motifs and peptides and their uses” (priority 1992, dated 2016).
Where two headings read alike, the source gives them in different places. Residues, ends and D or L forms follow the SMILES beside them. No end group written: not given here.

Experiments:
DR1 (DRB1*0101) = DR1 (DRB1*0101) (Homo sapiens, UniProt P01903+P01911, A100R/D57E/F55L/F60I/F76Y/I96L/L162R/M171V/P40L/Q125E/R42F/V115G/Y59C); assay: biochemical; type: binding; conditions: read-out: DRB1*0101
DR7 (DRB1*0701) = DR7 (DRB1*0701) (Homo sapiens, UniProt P01903+P01911, A100R/A102G/A103Q/D57E/D86V/E43K/F76Y/K127E/L162R/M171V/P40G/Q125H/Q99D/R33Q/R42Y/R54Q/S133A/S66F/T210M/V115G/Y107V/Y59L/Y89S); assay: biochemical; type: binding; conditions: read-out: DRB1*0701
DRB1*0405 = DRB1*0405 (Homo sapiens, UniProt P01903+P01911, A100R/A169T/D86S/F76Y/I96L/K127E/L162R/M171V/N62H/P40V/Q125Y/R42H/S133A/S149N/S66Y/V115G/V209L/W38E); assay: biochemical; type: binding; conditions: read-out: DRB1*0405
DRB1*0901 = DRB1*0901 (Homo sapiens, UniProt P01903+P01911, A100R/A103E/D57H/D86V/F55Y/F60I/F76Y/I96F/K127E/L162R/M171V/P40D/Q125H/Q99R/R33Q/R42F/S133A/S66N/T210M/V115G/W38K/Y107V/Y59G/Y89S); assay: biochemical; type: binding; conditions: read-out: DRB1*0901
DRB1*1101 = DRB1*1101 (Homo sapiens, UniProt P01903+P01911, A100R/A169T/A87E/I96F/K41T/L162R/M171V/P40S/Q125H/Q178H/Q39Y/Q99D/R42S/S66Y/T262R/V115G/W38E); conditions: read-out: DRB1*1101
A02 supertype = type: binding, human
B*5101 = B*5101 (Homo sapiens, UniProt P01889, A329T/A93T/A95T/C349S/D138N/D201E/D98Y/E187L/E204Q/E69T/G107R/I218V/K202T/L105A/L119W/N104I/Q94N/R106L/R155S/R180L/S101N/S121T/S35A/S48A/V306I/V36M/Y195H/Y91F); assay: HLA-B*5101 peptide binding (B7-like supertype)
[1] = test system: B7-Like Supertype (B*0701, B*3501, B*5101, B*5301, B*5401); type: binding, human
B*0701 = B*0701 (Homo sapiens, UniProt P01889); assay: biochemical
B*3501 [2] = target: T1, B*3501 (Homo sapiens, UniProt P01889, A329T/A93T/A95T/C349S/D201E/D98Y/E176V/E187L/E204Q/E69T/I218V/K202T/L119I/Q94N/R155S/R180L/S121R/S35A/S48A/T118I/V127L/V306I/V36M/Y140S/Y91F); assay: biochemical
B*5301 = B*5301 (Homo sapiens, UniProt P01889, A329T/A93T/A95T/C349S/D201E/D98Y/E176V/E187L/E204Q/E69T/G107R/I218V/K202T/L105A/L119I/N104I/Q94N/R106L/R155S/R180L/S101N/S121R/S35A/S48A/T118I/V127L/V306I/V36M/Y140S/Y91F); assay: biochemical
B*5401 = B*5401 (Homo sapiens, UniProt P01889, A329T/C349S/D138N/D201E/E176V/E187T/E204Q/E69G/I76V/K202T/L119W/R155S/R180L/S121T/S35A/S48A/V127L/V306I/V36M/Y140L); assay: biochemical
DR4w4 (DRB1*0401) = DR4w4 (DRB1*0401) (Homo sapiens, UniProt P01903+P01911, A100K/A169T/F76Y/I96L/K127E/L162R/M171V/N62H/P40V/Q125Y/R42H/S133A/S149N/S66Y/V115G/V209L/W38E); assay: biochemical; type: binding
H-2Db = H-2Db (Mus musculus, UniProt P01899); assay: biochemical; type: binding, murine
A01 supertype = type: binding, human
DRB1*0802 = DRB1*0802 (Homo sapiens, UniProt P01903+P01911, A100R/A103L/A169T/F76Y/H45Y/I96F/K41T/L162R/M171V/P40S/Q125H/Q178H/Q39Y/Q99D/R218S/R42G/S66Y/V115G/W38E); assay: biochemical; type: binding; conditions: read-out: DRB1*0802
DRB1*1302 = DRB1*1302 (Homo sapiens, UniProt P01903+P01911, A100E/A169T/K41T/L162R/M171V/P40S/Q125H/Q178H/Q39Y/Q99D/R42S/S66N/T262R/V115G/W38E/Y61H); assay: biochemical; type: binding; conditions: read-out: DRB1*1302
DRB1*1501 = DRB1*1501 (Homo sapiens, UniProt P01903+P01911); assay: biochemical; type: binding; conditions: read-out: Binding affinity DRB1 *1501
DRB3*0101 = DRB3*0101 (Homo sapiens, UniProt P01903+P79483); assay: biochemical; type: binding; conditions: read-out: DRB3*0101
DRB4*0101 = DRB4*0101 (Homo sapiens, UniProt P01903+P13762, G164S); assay: biochemical; type: binding; conditions: read-out: Binding affinity DRB4 *0101
DRB5*0101 = DRB5*0101 (Homo sapiens, UniProt P01903+Q30154)
B*0702 (B*0701) = B*0702 (B*0701) (Homo sapiens, UniProt P01889); assay: biochemical; type: binding
B*3502 = B*3502 (Homo sapiens, UniProt P01889, A329T/A93T/A95T/C349S/D138N/D201E/D98Y/E176V/E187L/E204Q/E69T/I218V/K202T/L119I/L133F/Q94N/R155S/R180L/S121R/S35A/S48A/T118I/V127L/V306I/V36M/Y91F); assay: biochemical; type: binding
B*3503 = B*3503 (Homo sapiens, UniProt P01889, A329T/A93T/A95T/C349S/D201E/D98Y/E176V/E187L/E204Q/E69T/I218V/K202T/L119I/Q94N/R155S/R180L/S121R/S35A/S48A/T118I/V127L/V306I/V36M/Y140F/Y91F); assay: biochemical; type: binding
B*5401 (B54) = B*5401 (B54) (Homo sapiens, UniProt P01889, A329T/C349S/D138N/D201E/E176V/E187T/E204Q/E69G/I76V/K202T/L119W/R155S/R180L/S121T/S35A/S48A/V127L/V306I/V36M/Y140L); conditions: read-out: BINDING CAPACITY (IC50 nM) B*5401
B*3501 [3] = target: T1, B*3501; assay: biochemical; remark: listed apart in the source

CC[C@H](C)[C@H](NC(=O)[C@H](CC(=O)O)NC(=O)[C@H](CCC(N)=O)NC(=O)[C@H](CC(C)C)NC(=O)[C@H](CO)NC(=O)[C@@H](NC(=O)[C@@H](N)CC(N)=O)[C@@H](C)O)C(=O)N[C@@H](CCC(=O)O)C(=O)N[C@H](C(=O)N[C@H](C(=O)N[C@@H](CS)C(=O)N[C@H](C(=O)N[C@@H](Cc1ccc(O)cc1)C(=O)N[C@@H](CS)C(=O)N[C@@H](CCCCN)C(=O)O)C(C)C)[C@@H](C)O)[C@@H](C)CC [Peptide 85.0007] (H-NTSLQDIEITCVYCK-OH)
IC50 (DR1 (DRB1*0101)): > 12.1 µM | IC50 (DR7 (DRB1*0701)): > 17.2 µM | IC50 (DRB1*0405): 4.58 µM | IC50 (DRB1*0901): 30.9 µM | IC50 (DRB1*1101): > 14.7 µM

HTQELFISNIV [Peptide 9013.0316]
Degeneracy (A02 supertype): 1

IPIPMSWAF
IC50 (B*5101): 0.58 µM | x-rxn [1]: 3 | IC50 (B*0701): 0.229 µM | IC50 (B*3501 [2]): 0.0022 µM | IC50 (B*5301): 0.93 µM | IC50 (B*5401): 0.0059 µM

820.03 (ARQTTLKAAA; also: non-natural residue (15A)) [Peptide 820.03]
IC50 (DR1 (DRB1*0101)): 0.0042 µM | IC50 (DR4w4 (DRB1*0401); read-out: DRB1*0401): 0.00031 µM | IC50 (DRB1*1101): 0.0018 µM

CSCC[C@H](NC(=O)[C@H](Cc1c[nH]c2ccccc12)NC(=O)[C@@H](NC(=O)[C@H](Cc1ccc(O)cc1)NC(=O)[C@H](Cc1ccccc1)NC(=O)[C@H](CC(=O)O)NC(=O)[C@H](Cc1ccc(O)cc1)NC(=O)[C@@H](NC(=O)[C@@H](N)CO)C(C)C)C(C)C)C(=O)O [Peptide F138.03]
IC50 (H-2Db): 3.37 µM

AFKDLFVVY
Degeneracy (A01 supertype): 2

820.01 (YARSQTTLKAKT; also: non-natural residue (15A)) [Peptide 820.01]
IC50 (DR1 (DRB1*0101)): 0.0024 µM | IC50 (DR4w4 (DRB1*0401); read-out: DRB1*0401): 0.00078 µM | IC50 (DRB1*1101): 0.0025 µM

SIQFFGERAL [Peptide F079.03]
IC50 (H-2Db): > 44 µM

CSCC[C@H](NC(=O)[C@H](Cc1ccccc1)NC(=O)[C@H](CCCCN)NC(=O)[C@@H](NC(=O)[C@@H](NC(=O)[C@H](CCCCN)NC(=O)[C@H](CCC(N)=O)NC(=O)[C@@H]1CCCN1C(=O)[C@H](Cc1c[nH]cn1)NC(=O)[C@@H](NC(=O)[C@H](CCC(N)=O)NC(=O)[C@H](C)NC(=O)[C@@H](N)CS)C(C)C)C(C)C)[C@@H](C)O)C(=O)N[C@@H](CC(C)C)C(=O)N[C@@H](CS)C(=O)O [Peptide 68.0078]
IC50 (DR1 (DRB1*0101)): 10.2 µM | IC50 (DR4w4 (DRB1*0401); read-out: Binding affinity DRB1 *0401): 2.57 µM | IC50 (DR7 (DRB1*0701)): 32.3 µM | IC50 (DRB1*0802): 8.73 µM | IC50 (DRB1*0901): 34.9 µM | IC50 (DRB1*1302): 2.19 µM | IC50 (DRB1*1501): 0.809 µM | IC50 (DRB3*0101): > 13.5 µM | IC50 (DRB4*0101): 0.604 µM | IC50 (DRB5*0101; read-out: Binding affinity DRB5 *0101): 1.23 µM

CC(C)C[C@H](NC(=O)[C@H](Cc1c[nH]c2ccccc12)NC(=O)[C@H](CCCCN)NC(=O)CNC(=O)[C@H](CC(C)C)NC(=O)[C@H](CS)NC(=O)[C@H](Cc1c[nH]cn1)NC(=O)[C@H](CS)NC(=O)[C@@H](NC(=O)[C@H](CCCNC(=N)N)NC(=O)[C@H](CCC(=O)O)NC(=O)[C@H](CC(C)C)NC(=O)[C@H](CO)NC(=O)[C@H](Cc1c[nH]cn1)NC(=O)[C@H](C)NC(=O)[C@@H](N)CCC(N)=O)C(C)C)C(=O)NCC(=O)N[C@@H](Cc1c[nH]cn1)C(=O)N1CCC[C@H]1C(=O)N[C@@H](CC(=O)O)C(=O)N[C@@H](CCCCN)C(=O)O [Peptide 868.01] (H-QAHSLERVCHCLGKWLGHPDK-OH)
IC50 (DR7 (DRB1*0701)): > 250 µM | IC50 (DRB5*0101; read-out: DRB5*0101): 2.5 µM

SIQFFGEL [Peptide F079.04]
IC50 (H-2Db): > 44 µM

CC(C)C[C@H](NC(=O)[C@H](C)NC(=O)[C@@H](NC(=O)[C@H](CC(C)C)NC(=O)[C@H](C)NC(=O)[C@@H](NC(=O)[C@@H](NC(=O)[C@H](CCCNC(=N)N)NC(=O)[C@@H]1CCCN1C(=O)[C@H](C)N)[C@@H](C)O)C(C)C)[C@@H](C)O)C(=O)O [APRTVALTAL]
IC50 (B*0702 (B*0701)): 0.0042 µM | IC50 (B*3502): > 30 µM | IC50 (B*3503): > 30 µM | IC50 (B*5401 (B54)): 17300 nM | IC50 (B*3501 [3]): > 30 µM

820.04 (ARQTTLKAAA; also: non-natural residue (16A)) [Peptide 820.04]
IC50 (DR4w4 (DRB1*0401); read-out: DRB1*0401): 0.0013 µM | IC50 (DRB1*1101): 0.077 µM

782.03 (YARSQTTLKAKT; also: non-natural residue (15)) [Peptide 782.03]
IC50 (DR1 (DRB1*0101)): 0.0015 µM | IC50 (DR4w4 (DRB1*0401); read-out: DRB1*0401): 0.00046 µM | IC50 (DR7 (DRB1*0701)): 1.2 µM | IC50 (DRB1*1101): 0.0039 µM

820.02 (YARRQTTLKAAA; also: non-natural residue (15A)) [Peptide 820.02]
IC50 (DR1 (DRB1*0101)): 0.0016 µM | IC50 (DR4w4 (DRB1*0401); read-out: DRB1*0401): 0.00035 µM | IC50 (DR7 (DRB1*0701)): 8.33 µM | IC50 (DRB1*1101): 0.0012 µM
